# Source: BindingDB's records for doi:10.1016/j.bioorg.2015.09.008 (Gc University, 2015)
# Columns and labels:
# Alpha-glucosidase MAL12 = Alpha-glucosidase MAL12 (Saccharomyces cerevisiae (strain ATCC 204508 / S288c), UniProt P53341); assay: α-Glucosidase Assay; details: pH 6.8
# Procedure: The α-glucosidase inhibition activity was performed with slight modifications according to method. […] Thecontents were mixed, preincubated for 10 min at 37 °C and preread at 400 nm. The reaction was initiated by the addition of 10 µL of 0.5 mM substrate (p-nitrophenyl glucopyranoside, Sigma Inc.). After 30 min of incubation at 37 °C, absorbance of the yellow color produced due to the formation of p-nitrophenol was measured at 400 nm using Synergy HT (BioTek, USA) 96-well microplate reader. Acarbose was used as positive control.
# Cholinesterase = Cholinesterase (Homo sapiens, UniProt P06276); assay: AChE and BChE Assay; details: pH 7.7
# Procedure: (§1) The AChE inhibition assay was performed according to the Ellman's method. Total volume of 100 µL reaction mixture contained 60 µL 50 mM Na2HPO4 buffer, pH 7.7. Ten µL test compound (0.5 mM well#1) was added, followed by the addition of10 µL (0.005 unit well#1 AChE, 0.5 unit well#1 BChE, Sigma Inc.) enzyme. […] The reaction was initiated by the addition of 10 µL of 0.5 mM well#1 substrate (acetylthiocholine iodide or butyrylthiocholine chloride, Sigma Inc.), followed bythe addition of 10 µL DTNB from Sigma Inc. (0.5 mM well#1). After 15 min of incubation at 37 °C, absorbance was measured using 96-well plate reader Synergy HT, Biotek, USA. All experiments were carried out with their respective controls in triplicate.
# Acetylcholinesterase = Acetylcholinesterase (Electrophorus electricus, UniProt O42275); assay: AChE and BChE Assay; details: pH 7.7
# Procedure: as §1
# Chain of Alpha-glucosidase MAL12 (P53341 whole entry): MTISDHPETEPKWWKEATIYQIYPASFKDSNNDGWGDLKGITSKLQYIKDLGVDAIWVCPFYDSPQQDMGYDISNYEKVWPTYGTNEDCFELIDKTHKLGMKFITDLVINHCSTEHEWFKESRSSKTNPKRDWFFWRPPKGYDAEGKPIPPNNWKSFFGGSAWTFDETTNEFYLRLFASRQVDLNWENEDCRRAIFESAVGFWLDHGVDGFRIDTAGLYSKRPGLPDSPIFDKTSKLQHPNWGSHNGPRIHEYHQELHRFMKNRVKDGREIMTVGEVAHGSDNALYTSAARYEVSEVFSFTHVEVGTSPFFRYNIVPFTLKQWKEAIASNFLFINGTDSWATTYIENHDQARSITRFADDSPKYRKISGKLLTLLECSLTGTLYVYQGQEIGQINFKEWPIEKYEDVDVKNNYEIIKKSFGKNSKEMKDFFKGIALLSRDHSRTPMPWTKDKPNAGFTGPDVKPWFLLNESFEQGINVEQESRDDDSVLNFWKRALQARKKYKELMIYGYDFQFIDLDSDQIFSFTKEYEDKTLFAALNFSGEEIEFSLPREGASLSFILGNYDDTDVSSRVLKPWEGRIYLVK
# Chain of Cholinesterase (P06276 whole entry): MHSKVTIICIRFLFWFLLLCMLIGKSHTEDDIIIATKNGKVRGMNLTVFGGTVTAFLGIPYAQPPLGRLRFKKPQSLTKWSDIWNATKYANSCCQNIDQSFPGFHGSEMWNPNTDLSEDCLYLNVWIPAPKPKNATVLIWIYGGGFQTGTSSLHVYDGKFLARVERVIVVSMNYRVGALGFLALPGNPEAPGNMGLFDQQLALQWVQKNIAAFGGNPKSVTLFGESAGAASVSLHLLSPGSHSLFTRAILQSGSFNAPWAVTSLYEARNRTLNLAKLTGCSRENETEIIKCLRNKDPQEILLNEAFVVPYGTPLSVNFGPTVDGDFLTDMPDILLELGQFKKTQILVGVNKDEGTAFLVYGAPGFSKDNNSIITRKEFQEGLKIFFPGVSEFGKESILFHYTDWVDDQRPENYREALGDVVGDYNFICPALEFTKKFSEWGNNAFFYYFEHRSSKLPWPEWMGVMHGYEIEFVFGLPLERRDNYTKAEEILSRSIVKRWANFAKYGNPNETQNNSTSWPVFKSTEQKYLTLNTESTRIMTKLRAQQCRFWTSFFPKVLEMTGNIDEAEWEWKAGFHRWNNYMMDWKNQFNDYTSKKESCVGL
# Chain of Acetylcholinesterase (O42275 whole entry): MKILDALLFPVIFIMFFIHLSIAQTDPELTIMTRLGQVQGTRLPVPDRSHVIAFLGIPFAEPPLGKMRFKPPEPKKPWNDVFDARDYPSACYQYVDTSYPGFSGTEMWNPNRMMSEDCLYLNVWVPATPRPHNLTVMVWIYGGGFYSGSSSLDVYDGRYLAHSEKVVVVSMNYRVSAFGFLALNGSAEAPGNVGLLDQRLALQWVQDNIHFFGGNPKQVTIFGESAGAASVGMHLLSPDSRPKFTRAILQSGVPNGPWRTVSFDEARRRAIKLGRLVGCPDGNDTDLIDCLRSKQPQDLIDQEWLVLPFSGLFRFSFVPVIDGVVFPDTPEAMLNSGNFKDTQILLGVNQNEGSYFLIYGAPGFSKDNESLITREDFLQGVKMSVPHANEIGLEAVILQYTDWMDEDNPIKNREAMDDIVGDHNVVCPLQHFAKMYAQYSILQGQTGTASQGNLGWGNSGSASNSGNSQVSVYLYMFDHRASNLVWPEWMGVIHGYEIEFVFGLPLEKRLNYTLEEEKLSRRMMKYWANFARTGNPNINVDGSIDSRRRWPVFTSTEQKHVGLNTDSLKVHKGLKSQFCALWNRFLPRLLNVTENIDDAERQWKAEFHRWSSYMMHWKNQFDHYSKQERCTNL
Compound,IC50 (Alpha-glucosidase MAL12),IC50 (Cholinesterase),IC50 (Acetylcholinesterase)
"O=C(NNS(=O)(=O)c1ccccc1)c1cc(C(=O)NNS(=O)(=O)c2ccccc2)nc(C(=O)NNS(=O)(=O)c2ccccc2)c1 [N',N'',N'''-(pyridine-2,4,6-tricarbonyl)tribenzenesulfonohydrazide (4a)]",32.2 µM,43.8 µM,50.2 µM
"CCS(=O)(=O)NNC(=O)c1cc(C(=O)NNS(=O)(=O)CC)nc(C(=O)NNS(=O)(=O)CC)c1 [N',N'',N'''-(pyridine-2,4,6-tricarbonyl)triethanesulfonohydrazide (4h)]",–,112 µM,29.1 µM
"CS(=O)(=O)NNC(=O)c1cc(C(=O)NNS(C)(=O)=O)nc(C(=O)NNS(C)(=O)=O)c1 [N',N'',N'''-(pyridine-2,4,6-tricarbonyl)trimethanesulfonohydrazide (4g)]",–,44.8 µM,10.8 µM
"O=C(NNS(=O)(=O)c1ccc(Br)cc1)c1cc(C(=O)NNS(=O)(=O)c2ccc(Br)cc2)nc(C(=O)NNS(=O)(=O)c2ccc(Br)cc2)c1 [N',N'',N'''-(pyridine-2,4,6-tricarbonyl)tris(4-bromobenzenesulfonohydrazide) (4b)]",26.8 µM,–,–
"O=C(NNS(=O)(=O)c1ccc(Cl)cc1)c1cc(C(=O)NNS(=O)(=O)c2ccc(Cl)cc2)nc(C(=O)NNS(=O)(=O)c2ccc(Cl)cc2)c1 [N',N'',N'''-(pyridine-2,4,6-tricarbonyl)tris(4-chlorobenzenesulfonohydrazide (4d)]",28.8 µM,–,–
"O=C(NNS(=O)(=O)c1ccc(F)cc1)c1cc(C(=O)NNS(=O)(=O)c2ccc(F)cc2)nc(C(=O)NNS(=O)(=O)c2ccc(F)cc2)c1 [N',N'',N'''-(pyridine-2,4,6-tricarbonyl)tris(4-fluorobenzenesulfonohydrazide (4c)]",25.6 µM,–,–
"Cc1ccc(S(=O)(=O)NNC(=O)c2cc(C(=O)NNS(=O)(=O)c3ccc(C)cc3)nc(C(=O)NNS(=O)(=O)c3ccc(C)cc3)c2)cc1 [N',N'',N'''-(pyridine-2,4,6-tricarbonyl)tris(4-methylbenzenesulfonohydrazide) (4e)]",125 µM,–,–
